Some test systems named below: HCT-116 colon; HCC-2998 colon; NCI/ADR-RES ovarian; NCI-H522 lung; PC-3 prostate; RPMI-8226 leukemia; SW-620 colon; COLO 205 colon; MOLT-4 leukemia; K-562 leukemia; EKVX NSCLC; IGROV1 ovarian; NCI-H23 lung; MDA-N; NCI-H460 lung; OVCAR-5 ovarian; BT-549 breast; SK-MEL-2 melanoma; SK-OV-3 ovarian.
What all share (assay): NCI-60 cell line screen, 48 h

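Five compound concentrations were applied to cells in 96-well plates for 48 hours; endpoints were derived by simple linear interpolation of the resulting dose-response curve. TGI: concentration producing complete growth inhibition.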

As to `O=S(Nc1ccccc1)c1cccc(Cl)c1` (stereo not drawn), the TGI is above 100 µM in the assay on HCT-116 colon; 76.3 µM with HCC-2998 colon; above 100 µM in the assay on NCI/ADR-RES ovarian; above 100 µM in the assay on NCI-H522 lung; above 100 µM with PC-3 prostate; above 100 µM in the assay with RPMI-8226 leukemia. The TGI in the assay on SW-620 colon, in the assay on COLO 205 colon, with MOLT-4 leukemia, in the assay with K-562 leukemia, in the assay with EKVX NSCLC and with IGROV1 ovarian was above 100 µM in each case. Besides, the TGI with NCI-H23 lung, with MDA-N, with NCI-H460 lung and with OVCAR-5 ovarian was above 100 µM throughout.
As for `COc1ccc(CNC(=O)NCn2cc(-c3ccccc3)nn2)cc1`, the TGI in the assay with HCT-116 colon, in the assay on HCC-2998 colon, with NCI/ADR-RES ovarian, in the assay with NCI-H522 lung, in the assay with PC-3 prostate and in the assay on BT-549 breast was above 100 µM each time. Also, the TGI with RPMI-8226 leukemia, in the assay on SW-620 colon, in the assay with COLO 205 colon, in the assay with MOLT-4 leukemia, in the assay with K-562 leukemia and with EKVX NSCLC was above 100 µM throughout. Besides, the TGI with IGROV1 ovarian, with NCI-H23 lung, in the assay with NCI-H460 lung, in the assay on SK-MEL-2 melanoma and in the assay with OVCAR-5 ovarian was above 100 µM throughout.
With `CCSc1n/c(=C\c2ccco2)c2nncn12`, the TGI in the assay with HCT-116 colon, in the assay on NCI/ADR-RES ovarian, in the assay with NCI-H522 lung, in the assay with PC-3 prostate, in the assay with RPMI-8226 leukemia and with SW-620 colon was above 100 µM in each case. The TGI with COLO 205 colon, in the assay with MOLT-4 leukemia, in the assay on K-562 leukemia, in the assay on EKVX NSCLC, in the assay with IGROV1 ovarian and in the assay on NCI-H23 lung was above 100 µM each time. The TGI with MDA-N, in the assay on SK-OV-3 ovarian, in the assay on SK-MEL-2 melanoma and in the assay on OVCAR-5 ovarian was above 100 µM throughout.
As for `CC(C)C1=CC23CCC4C(C)(C(=O)O)CCCC4(C)C2CC1C1C(=O)N(c2ccccc2N2C(=O)C4C5CC6C7(C)CCCC(C)(C(=O)O)C7CCC6(C=C5C(C)C)C4C2=O)C(=O)C13` (stereo not drawn), the TGI with HCT-116 colon is 18.2 µM; in the assay on HCC-2998 colon, 16.1 µM; in the assay with NCI-H522 lung, 23 µM; with PC-3 prostate, 14 µM; in the assay on RPMI-8226 leukemia, above 100 µM; in the assay with SW-620 colon it was 30.6 µM. The TGI was found to be 17.8 µM in the assay on COLO 205 colon; 14.2 µM in the assay with MOLT-4 leukemia; 73 µM with K-562 leukemia; 17.9 µM in the assay on EKVX NSCLC; 11.6 µM with NCI-H23 lung; 19.4 µM in the assay with MDA-N. Further, the TGI in the assay on SK-MEL-2 melanoma came to 26.1 µM; in the assay on OVCAR-5 ovarian, 25 µM.
As to `CCOC(=O)Cn1c(=O)c2nc(SC)sc2n(CC)c1=S`, the TGI with HCT-116 colon, with HCC-2998 colon, in the assay with NCI/ADR-RES ovarian, with NCI-H522 lung, with PC-3 prostate and in the assay on RPMI-8226 leukemia was above 100 µM each time. Besides, the TGI with SW-620 colon, in the assay on COLO 205 colon, with MOLT-4 leukemia, in the assay with K-562 leukemia, in the assay with IGROV1 ovarian and with NCI-H23 lung was above 100 µM in each case. In addition, the TGI in the assay on MDA-N, in the assay with SK-OV-3 ovarian, in the assay with NCI-H460 lung, in the assay on SK-MEL-2 melanoma and in the assay on OVCAR-5 ovarian was above 100 µM throughout.
Consider `C=CCOC(=O)NC1C(OC(C)[C@@H](NC(=O)OCc2ccccc2)C(=O)OC(C)(C)C)OC(COC(C)=O)C(OC(C)=O)C1OC(C)=O` (stereo partly drawn), for which the TGI in the assay with HCT-116 colon, with HCC-2998 colon, in the assay with NCI/ADR-RES ovarian, in the assay on NCI-H522 lung, with PC-3 prostate and in the assay with RPMI-8226 leukemia was above 100 µM throughout. In addition, the TGI in the assay on SW-620 colon, with COLO 205 colon, with MOLT-4 leukemia, with K-562 leukemia, in the assay on EKVX NSCLC and with IGROV1 ovarian was above 100 µM each time. Moreover, the TGI with NCI-H23 lung, in the assay on MDA-N, in the assay on SK-OV-3 ovarian, with NCI-H460 lung and in the assay on OVCAR-5 ovarian was above 100 µM throughout.
Regarding `COc1ccc(-n2c(=O)[nH]n(C(C)=O)c2=O)cc1`, the TGI in the assay on HCT-116 colon, in the assay with NCI/ADR-RES ovarian, in the assay on NCI-H522 lung, with PC-3 prostate, in the assay on RPMI-8226 leukemia and in the assay on SW-620 colon was above 100 µM in each case. The TGI in the assay with COLO 205 colon, in the assay on MOLT-4 leukemia, with K-562 leukemia, in the assay on EKVX NSCLC, with IGROV1 ovarian and with NCI-H23 lung was above 100 µM each time. Further, the TGI in the assay with MDA-N, in the assay on NCI-H460 lung, in the assay on SK-MEL-2 melanoma and with OVCAR-5 ovarian was above 100 µM throughout.
With `Cc1cc2c(cc1Cl)S(=O)(=O)OC(c1ccc([N+](=O)[O-])cc1)=N2`, the TGI in the assay with HCT-116 colon, in the assay with HCC-2998 colon, in the assay with NCI/ADR-RES ovarian, with NCI-H522 lung, in the assay with PC-3 prostate and with BT-549 breast was above 100 µM throughout. For the same compound, the TGI with RPMI-8226 leukemia, in the assay with SW-620 colon, in the assay with COLO 205 colon, in the assay with MOLT-4 leukemia, in the assay with K-562 leukemia and with EKVX NSCLC was above 100 µM throughout. Also, the TGI in the assay with IGROV1 ovarian, with SK-OV-3 ovarian and with NCI-H460 lung was above 100 µM throughout.

For the origin of these results see PubChem BioAssay (NCI).
